Tests used:
[1] = Acute oral toxicity in mice; type: in vivo; conditions: in vivo, mouse, read-out: dose up to which no symptom occurs
Protocol: (§1) By way of example there are described below the comparative tests made on difluorohydrate of N,N'-di(hydroxyethyl) piperazine and on fluorohydrate of hexadecylamine or "ELMEX 242".
(§2) The acute toxidity was studies in rats and in mice.
(§3) The animals came from a homogeneous breed. The mice weighed between 19 and 21 g and the rats weighed from 120 to 140 g. The mice were grouped in lots of 10 and the rats in lots of 8.
(§4) The administrations took place orally at a volume of 0.5 ml per 20 g of mouse and 1 ml per 100 g of rat. The LD50 was determined by the method of Lichfield and Wilcoxon.
(§5) As regards the difluorohydrate of N,N'-di(hydroxyethyl) piperazine, the administered solution was prepared by diluting the mother solution to 65.4%, the dilutions being made after having weighed this solution. The administered dose is expressed by weight, taking account of the indicated strength of this solution.
(§6) For the solid "ELMEX 242" an aqueous suspension was prepared with the aid of solubilizing agents (e.g. Tween-polyoxyethylene sorbitan monolaurate). A very thick suspension is then obtained which tends to foam heavily, is difficult to get into the esophageal sound, and the determination of its volume is rendered difficult by the foam.
(§7) The results obtained with the "ELMEX" are therefore rather approximate.

mice = test: Acute oral toxicity in mice; type: in vivo
Protocol: as §1, §2, §3, §4, §5, §6, §7

in vivo = type: in vivo; conditions: in vivo; rat, oral; Lichfield and Wilcoxon
Protocol: as §1, §2, §3, §4, §5, §6, §7

[2] = Penetration of fluorine 18 into dental enamel after topical application (Muhlemann biopsy); design: species or system children
From the text: The anticariogenic activity of the difluorohydrate of N,N'-di(hydroxy-ethyl) piperazine has been evidenced by comparison with sodium fluoride known for its cariopreventive topical properties. A comparative study has been made of the penetration into the dental enamel of the fluorine contained in the molecule according to the invention and of the fluorine contained in sodium fluoride.
For this comparison the difluorohydrate of N,N'-di(hydroxy-ethyl) piperazine was marked at the fluorine 18, by isotopic exchange by dissolving some crystals of the product according to the invention in a solution of pure fluorine 18 without entrainer. The same was done for the sodium fluoride.
The study of the penetration of the fluorine into the enamel was made on several teeth to compare the behavior of the product of the invention and of sodium fluoride in supplying fluorine and in the penetration of the latter into the deepest layers of the dental tissue.
The tests were performed on 30 premolar teeth taken from normal children 9 to 11 years old. Eighteen teeth were treated by topical application of the radioactive solutions of the difluoro-hydrate of N,N'-di(hydroxy-ethyl) piperazine or of NaF adjusted to pH=3.5; the other 12 were treated with the same solutions adjusted to a pH of 7.4.
(§8) The radioactive solutions are obtained by dissolving 69 mg of the difluorohydrate and 81.3 mg of NaF, respectively, in 1 and 3 ml of fluorine 18 solution without entrainer. Thus solutions titering 1.23% fluorine are obtained.
(§9) As the difluorohydrate solution is already at pH=3.5, it is sufficient to acidify the NaF solution by addition of about 0.2 ml hydrochloric acid 6 M, to 3 ml of the radioactive solution.
In this case, the difluorohydrate's nature of organic salt can be preserved and its solution neutralized at 1.23% of fluorine in 1 ml by addition of about 110 mg of its N,N'-di(hydroxyethyl) piperazine base.
For the experimentation one determines two enamel plagues on each tooth. For this, one applies on the crowns, separated from each other by 2 or 3 mm, two round disks of a diameter of 3 mm cut out from adhesive tape. The crown is then covered with a layer of impermeable varnish. When the varnish is dry, the patches of adhesive tape are removed, thus bearing the two zones of enamel to be treated.
The spot application of the fluorinated solution is done by means of a sponge imbibed with 0.5 ml of the solution. This sponge is inserted in a polyethylene tube to limit the surface of contact between tooth and sponge to the circumference of the enamel zone treated.
The sampling of the enamel is done by Muhlemann's biopsy technique: A patch of blotting paper impregnated with 4 microliters of perchloric acid 2 M is applied on the trated enamel for 30 seconds. The enamel is dried with a second patch of blotting paper. It is on these patches which contain the dissolved enamel that we measure the radioactivity.
There are given in Table I all the results relating to the acid treatment, in Table II all the results relating to the treatment at neutral pH. The fluorine values are those obtained by measuring the radioactivity of the samples.
The columns […] and N2 represent the mass of fluorine measured on the second biopsy.
We have marked R1 and R1 and R2 the ratios G1 /G2 and N1 /N2, and R3 the ratio. [formula] R1 and R2 permitting to compare the quantities of fluorine at the same depth. R3 permits comparing the accumulation of fluorine in the tooth.

Hygroscopicity = type: physicochemical; conditions: crystals
[3] = pH of the difluorohydrate solution; type: physicochemical; conditions: solution titering 1.23% fluorine
Protocol: as §8, §9

[4] = Ionizable fluorine content; type: physicochemical

OCCN1CCN(CCO)CC1 [DIFLUOROHYDRATE OF N,N'-DI(HYDROXY-ETHYL) PIPERAZINE]
NOAEL at 240 h [1]: ≥ 400 mg/kg | toxicity compared with ELMEX 242 (mice; conclusion from mouse and rat, solution versus suspension): clearly more toxic than "ELMEX 242" | course: death and recovery (mice; mouse): Death occurs after one hour at the highest doses. | symptoms (mice; mouse): At higher doses the mice are totally immobile. They show light trembling, but over the entire body, also diarrhea. | Deaths (mice; mouse, 200 mg/kg, D + 1, 10 per lot): 0 | Deaths (mice; mouse, 200 mg/kg, D + 2, 10 per lot): 0 | Deaths (mice; mouse, 200 mg/kg, D + 5, 10 per lot): 0 | Deaths (mice; mouse, 200 mg/kg, D + 10, 10 per lot): 0 | Deaths (mice; mouse, 300 mg/kg, D + 1, 10 per lot): 0 | Deaths (mice; mouse, 300 mg/kg, D + 2, 10 per lot): 0 | Deaths (mice; mouse, 300 mg/kg, D + 5, 10 per lot): 0 | Deaths (mice; mouse, 300 mg/kg, D + 10, 10 per lot): 0 | Deaths (mice; mouse, 400 mg/kg, D + 1, 10 per lot): 2 | Deaths (mice; mouse, 400 mg/kg, D + 2, 10 per lot): 3 | Deaths (mice; mouse, 400 mg/kg, D + 5, 10 per lot): 3 | Deaths (mice; mouse, 400 mg/kg, D + 10, 10 per lot): 3 | Deaths (mice; mouse, 500 mg/kg, D + 1, 10 per lot): 3 | Deaths (mice; mouse, 500 mg/kg, D + 2, 10 per lot): 5 | Deaths (mice; mouse, 500 mg/kg, D + 5, 10 per lot): 5 | Deaths (mice; mouse, 500 mg/kg, D + 10, 10 per lot): 5 | Deaths (mice; mouse, 600 mg/kg, D + 1, 10 per lot): 4 | Deaths (mice; mouse, 600 mg/kg, D + 2, 10 per lot): 7 | Deaths (mice; mouse, 600 mg/kg, D + 5, 10 per lot): 8 | Deaths (mice; mouse, 600 mg/kg, D + 10, 10 per lot): 8 | Deaths (mice; mouse, 700 mg/kg, D + 1, 10 per lot): 9 | Deaths (mice; mouse, 700 mg/kg, D + 2, 10 per lot): 10 | Deaths (mice; mouse, 700 mg/kg, D + 5, 10 per lot): 10 | Deaths (mice; mouse, 700 mg/kg, D + 10, 10 per lot): 10 | Deaths (mice; mouse, 800 mg/kg, D + 1, 10 per lot): 7 | Deaths (mice; mouse, 800 mg/kg, D + 2, 10 per lot): 8 | Deaths (mice; mouse, 800 mg/kg, D + 5, 10 per lot): 9 | Deaths (mice; mouse, 800 mg/kg, D + 10, 10 per lot): 9 | Deaths (mice; mouse, 1000 mg/kg, D + 1, 10 per lot): 10 | Deaths (mice; mouse, 1000 mg/kg, D + 2, 10 per lot): 10 | Deaths (mice; mouse, 1000 mg/kg, D + 5, 10 per lot): 10 | Deaths (mice; mouse, 1000 mg/kg, D + 10, 10 per lot): 10 | persistence of the ill state (mice; mouse, doses above 400 mg/kg): at least 24 hours | time to onset of coma (mice; mouse, doses above 400 mg/kg): about 45 minutes | LD50 at 240 h (in vivo): 790 mg/kg | cases with R1 less than 1 ([2]; acid medium, 18 teeth): 16 cases | cases with R3 between 1 and 1.7 ([2]; acid medium, 18 teeth): 8 cases | cases with R3 greater than 1.7 ([2]; acid medium, 18 teeth): 4 cases | cases with R3 less than 1 ([2]; acid medium, 18 teeth): 5 cases | mean value of R3 ([2]; acid medium, 18 teeth, standard deviation 0.6): 1.5 | cases with R1 greater than 1 ([2]; neutral medium, 12 teeth): 10 cases | cases with R3 between 1 and 1.7 ([2]; neutral medium, 12 teeth): 7 cases | cases with R3 greater than 1.7 ([2]; neutral medium, 12 teeth): 2 cases | cases with R3 less than 1 ([2]; neutral medium, 12 teeth): 3 cases | mean value of R1 ([2]; neutral medium, 12 teeth): 3.0 | average of R3 ([2]; neutral medium, 12 teeth, standard deviation 0.4): 1.2 | average fluorine sampled in the two biopsies, acid pH compared with neutral pH ([2]; pH 3.5 versus pH 7.4): 2.6 | anticariogenic action compared with sodium fluoride ([2]; same pH conditions): effects comparable to those of sodium fluoride | hygroscopicity (Hygroscopicity): very hygroscopic | hygroscopicity (Hygroscopicity; listed as difluorohydrate): particularly hygroscopic | pH of the solution [3]: 3.5 | ionizable fluorine content [4]: 15.18%
